We go through 16 compounds from ChEMBL document CHEMBL1909046, “DrugMatrix in vitro pharmacology data”.

Test [1] deals with Matrix metalloproteinase-9 (Homo sapiens, UniProt P14780). Nature of the test: biochemical. The test is classed as cell-based.
Test [2] has as its target T1, Endothelin-1 receptor (Homo sapiens, UniProt P25101). Further: in other assays of this panel Not Active means under 50% inhibition at 10 µM.
T1 sequence (P25101 whole entry): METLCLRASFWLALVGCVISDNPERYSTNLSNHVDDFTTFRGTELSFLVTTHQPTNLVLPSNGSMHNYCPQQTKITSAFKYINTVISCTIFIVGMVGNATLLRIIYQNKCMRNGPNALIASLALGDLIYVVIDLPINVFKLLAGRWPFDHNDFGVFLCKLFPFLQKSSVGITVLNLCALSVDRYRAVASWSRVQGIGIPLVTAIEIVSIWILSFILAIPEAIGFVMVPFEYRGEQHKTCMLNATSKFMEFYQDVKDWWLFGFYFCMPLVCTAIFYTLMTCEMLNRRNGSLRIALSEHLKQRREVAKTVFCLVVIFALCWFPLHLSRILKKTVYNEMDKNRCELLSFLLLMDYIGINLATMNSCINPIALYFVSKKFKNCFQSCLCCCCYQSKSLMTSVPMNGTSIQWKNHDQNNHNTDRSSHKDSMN
Format: cell membranes, CHO-K1, Membrane. The following applies: cho-k1.

The target of test [3] is Vasopressin V1a receptor (Homo sapiens, UniProt P37288). Format: cell membranes, Membrane. The following applies: hek293. Further: in other assays of this panel Not Active means under 50% inhibition at 10 µM.
Sequence of Vasopressin V1a receptor (P37288 whole entry): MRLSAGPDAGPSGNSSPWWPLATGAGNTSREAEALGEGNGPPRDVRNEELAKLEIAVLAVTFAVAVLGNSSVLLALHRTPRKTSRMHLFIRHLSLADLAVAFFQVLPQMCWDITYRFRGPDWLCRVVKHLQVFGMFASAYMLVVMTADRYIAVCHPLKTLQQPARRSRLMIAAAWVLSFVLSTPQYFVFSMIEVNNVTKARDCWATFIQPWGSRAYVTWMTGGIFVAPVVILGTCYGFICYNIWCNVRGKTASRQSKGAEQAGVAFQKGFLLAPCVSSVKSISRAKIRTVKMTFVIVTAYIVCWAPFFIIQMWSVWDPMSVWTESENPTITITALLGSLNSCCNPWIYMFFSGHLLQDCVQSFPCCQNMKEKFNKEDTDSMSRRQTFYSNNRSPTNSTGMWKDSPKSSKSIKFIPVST
Test [4] addresses Sodium-dependent noradrenaline transporter (Homo sapiens, UniProt P23975). Briefly: DRUGMATRIX: Norepinephrine Transporter radioligand binding (ligand: [125I] RTI-55). The test is classed as cell membranes, MDCK, Membrane. The following applies: Not Active = under 50% inhibition at 10 µM.
A short description of test [5]: DRUGMATRIX: GABAA, Chloride Channel, TBOB radioligand binding (ligand: [3H] TBOB). The following applies: Not Active = under 50% inhibition at 10 µM. Format: cell membranes, Rattus norvegicus, Wistar, Cerebral cortex, Membrane.
The target in test [6] is Insulin receptor (Rattus norvegicus, UniProt P15127). Format: cell membranes, Wistar, Liver, Membrane. Further: in other assays of this panel Not Active means under 50% inhibition at 10 µM.
Sequence of Insulin receptor (P15127 27-759 limits assumed): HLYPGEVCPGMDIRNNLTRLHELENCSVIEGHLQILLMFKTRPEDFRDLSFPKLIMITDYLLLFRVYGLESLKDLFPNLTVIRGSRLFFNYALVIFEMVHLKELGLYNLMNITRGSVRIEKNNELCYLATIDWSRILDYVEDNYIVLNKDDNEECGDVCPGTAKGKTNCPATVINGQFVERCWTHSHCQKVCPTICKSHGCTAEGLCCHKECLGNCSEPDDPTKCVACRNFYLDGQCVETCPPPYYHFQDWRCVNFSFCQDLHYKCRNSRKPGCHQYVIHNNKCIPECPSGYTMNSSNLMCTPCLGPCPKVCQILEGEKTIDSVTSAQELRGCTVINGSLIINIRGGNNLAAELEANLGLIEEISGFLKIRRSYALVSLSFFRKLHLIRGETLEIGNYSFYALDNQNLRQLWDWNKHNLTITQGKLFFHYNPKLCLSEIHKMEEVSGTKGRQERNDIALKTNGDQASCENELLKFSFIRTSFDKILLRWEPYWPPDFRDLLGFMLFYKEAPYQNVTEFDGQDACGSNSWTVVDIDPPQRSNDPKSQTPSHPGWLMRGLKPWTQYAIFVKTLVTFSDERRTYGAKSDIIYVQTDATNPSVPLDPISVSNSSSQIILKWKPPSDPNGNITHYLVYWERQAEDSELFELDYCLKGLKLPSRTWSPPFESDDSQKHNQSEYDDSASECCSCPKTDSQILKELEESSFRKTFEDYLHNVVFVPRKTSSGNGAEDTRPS
Sequence of Insulin receptor (P15127 764-1383 limits assumed): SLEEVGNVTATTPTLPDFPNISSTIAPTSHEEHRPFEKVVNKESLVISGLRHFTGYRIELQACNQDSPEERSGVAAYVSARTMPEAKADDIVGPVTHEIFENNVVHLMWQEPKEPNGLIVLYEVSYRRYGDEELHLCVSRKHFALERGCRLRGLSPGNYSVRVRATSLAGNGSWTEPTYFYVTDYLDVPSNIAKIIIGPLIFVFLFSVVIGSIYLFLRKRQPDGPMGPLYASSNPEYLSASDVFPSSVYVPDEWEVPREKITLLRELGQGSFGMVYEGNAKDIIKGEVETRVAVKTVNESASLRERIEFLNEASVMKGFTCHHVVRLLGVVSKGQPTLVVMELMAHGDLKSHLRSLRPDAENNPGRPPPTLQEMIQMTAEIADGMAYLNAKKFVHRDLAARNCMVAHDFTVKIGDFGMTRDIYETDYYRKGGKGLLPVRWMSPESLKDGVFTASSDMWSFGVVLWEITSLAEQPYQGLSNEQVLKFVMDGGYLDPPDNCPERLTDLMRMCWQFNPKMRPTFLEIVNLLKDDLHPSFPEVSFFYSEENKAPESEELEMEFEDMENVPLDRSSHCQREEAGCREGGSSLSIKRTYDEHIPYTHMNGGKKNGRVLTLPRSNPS
For test [7], the target named is T2, C-X-C chemokine receptor type 1 (Homo sapiens, UniProt P25024). Further: in other assays of this panel Not Active means under 50% inhibition at 10 µM.
T2 sequence (P25024 whole entry): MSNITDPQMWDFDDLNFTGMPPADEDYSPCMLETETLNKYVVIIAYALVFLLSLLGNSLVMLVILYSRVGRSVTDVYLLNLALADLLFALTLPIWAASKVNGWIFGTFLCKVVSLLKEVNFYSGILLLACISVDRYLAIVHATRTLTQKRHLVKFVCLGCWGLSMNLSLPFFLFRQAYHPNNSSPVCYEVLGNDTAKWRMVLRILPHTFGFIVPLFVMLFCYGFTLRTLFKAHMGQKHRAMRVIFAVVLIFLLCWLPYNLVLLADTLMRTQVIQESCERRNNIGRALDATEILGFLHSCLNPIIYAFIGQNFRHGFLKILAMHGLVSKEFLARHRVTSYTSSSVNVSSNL

Sequence of Sodium-dependent noradrenaline transporter (P23975 whole entry): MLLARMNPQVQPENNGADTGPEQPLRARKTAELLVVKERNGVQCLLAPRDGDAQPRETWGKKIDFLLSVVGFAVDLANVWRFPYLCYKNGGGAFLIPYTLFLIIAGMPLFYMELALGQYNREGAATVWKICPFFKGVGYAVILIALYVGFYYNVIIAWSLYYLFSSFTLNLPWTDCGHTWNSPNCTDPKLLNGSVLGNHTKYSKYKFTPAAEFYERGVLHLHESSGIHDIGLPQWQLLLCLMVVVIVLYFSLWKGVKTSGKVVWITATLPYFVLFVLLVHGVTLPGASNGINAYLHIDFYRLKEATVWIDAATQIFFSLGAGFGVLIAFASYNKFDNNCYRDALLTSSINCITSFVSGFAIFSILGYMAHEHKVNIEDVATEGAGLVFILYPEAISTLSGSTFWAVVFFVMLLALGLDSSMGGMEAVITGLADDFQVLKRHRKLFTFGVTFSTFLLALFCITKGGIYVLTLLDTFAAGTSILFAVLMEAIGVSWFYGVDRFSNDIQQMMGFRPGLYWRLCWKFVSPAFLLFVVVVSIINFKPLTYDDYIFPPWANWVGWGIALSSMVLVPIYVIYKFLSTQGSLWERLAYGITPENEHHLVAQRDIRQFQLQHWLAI
Sequence of Matrix metalloproteinase-9 (P14780 whole entry): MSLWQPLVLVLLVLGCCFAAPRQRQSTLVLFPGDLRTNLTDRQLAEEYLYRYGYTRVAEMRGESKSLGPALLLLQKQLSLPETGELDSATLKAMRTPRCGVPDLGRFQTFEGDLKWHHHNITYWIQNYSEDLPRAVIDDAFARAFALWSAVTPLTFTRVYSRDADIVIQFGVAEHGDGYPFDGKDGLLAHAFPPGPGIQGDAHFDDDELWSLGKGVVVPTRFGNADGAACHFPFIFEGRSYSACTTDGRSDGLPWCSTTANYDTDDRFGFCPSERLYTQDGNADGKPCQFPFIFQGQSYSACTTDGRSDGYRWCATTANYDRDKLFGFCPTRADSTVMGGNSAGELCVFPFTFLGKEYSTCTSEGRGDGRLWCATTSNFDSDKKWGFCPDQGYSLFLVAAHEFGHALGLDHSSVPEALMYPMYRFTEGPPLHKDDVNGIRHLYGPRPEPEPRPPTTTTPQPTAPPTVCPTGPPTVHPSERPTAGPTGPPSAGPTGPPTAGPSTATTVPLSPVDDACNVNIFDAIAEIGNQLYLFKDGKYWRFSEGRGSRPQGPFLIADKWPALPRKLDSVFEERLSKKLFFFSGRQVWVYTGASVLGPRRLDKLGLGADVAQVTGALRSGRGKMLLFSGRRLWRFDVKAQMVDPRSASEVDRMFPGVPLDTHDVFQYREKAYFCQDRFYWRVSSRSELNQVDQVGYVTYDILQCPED

By IC50 is commonly meant the point on the concentration scale where inhibition reaches its midpoint. What is called Ki is the dissociation constant of the complex between target and ligand, obtained from inhibition or displacement. On to `OCCN(CCO)c1nc(N2CCCCC2)c2nc(N(CCO)CCO)nc(N3CCCCC3)c2n1` [DIPYRIDAMOLE], for which the IC50 result in test [1], in test [2], in test [3], in test [4] (mdck), in test [5] and in test [6] was “Not Active” in each case. Besides, in test [7], the 50% inhibitory concentration (IC50) entry was “Not Active”. Further, the Ki result in test [5] was “Not Active”.
On to `O=NN(CCCl)C(=O)NC1CCCCC1` [LOMUSTINE], for which the IC50 entry in test [1], in test [2], in test [3], in test [4] (mdck), in test [5] and in test [6] was “Not Active” in each case. The IC50 entry in test [7] was “Not Active”. Besides, in test [5], the Ki entry was “Not Active”.
As to `O=c1ncn2nc(Sc3ccc(F)cc3F)ccc2c1-c1c(Cl)cccc1Cl` [NEFLAMAPIMOD], the IC50 result was “Not Active” in test [1]; “Not Active” in test [2]; “Not Active” in test [3]; 20.4 µM in test [4] (read-out: IC50); “Not Active” in test [5]; “Not Active” in test [6]. Moreover, the concentration for half-maximal inhibition (IC50) entry in test [7] is reported as “Not Active”. In addition, the figures for the inhibition constant Ki in test [4] (read-out: Ki) and in test [5] were 20.2 µM and “Not Active”, respectively.
Turning to `CC[C@]1(O)C[C@H]2CN(CCc3c([nH]c4ccccc34)[C@@](C(=O)OC)(c3cc4c(cc3OC)N(C=O)[C@H]3[C@@](O)(C(=O)OC)[C@H](OC(C)=O)[C@]5(CC)C=CCN6CC[C@]43[C@@H]65)C2)C1` [VINCRISTINE], the IC50 result in test [1], in test [2], in test [3], in test [4] (mdck), in test [5] and in test [6] was “Not Active” in each case. Besides, the IC50 result in test [7] is reported as “Not Active”. Also, in test [5], the Ki entry was “Not Active”.
In the case of `CSc1ccc(/C=C2/C(C)=C(CC(=O)O)c3cc(F)ccc32)cc1` [SULINDAC SULFIDE], the IC50 entry in test [1], in test [2], in test [3], in test [4] (mdck), in test [5] and in test [6] was “Not Active” in each case. Moreover, in test [7], the IC50 entry is “Not Active”. In test [5], the Ki entry is on record as “Not Active”.
As for `CC(=O)[C@@]1(O)CC[C@H]2[C@@H]3C[C@H](C)C4=CC(=O)CC[C@]4(C)[C@H]3CC[C@@]21C`, the IC50 result in test [1], in test [2], in test [3], in test [4] (mdck), in test [5] and in test [6] was “Not Active” in each case. For the same compound, the concentration for half-maximal inhibition (IC50) entry in test [7] is listed as “Not Active”. For the same compound, the Ki result in test [5] is given as “Not Active”.
Take `N[C@@H](Cc1ccc(O)c(O)c1)C(=O)O` [LEVODOPA]: the IC50 result in test [1], in test [2], in test [3], in test [4] (mdck), in test [5] and in test [6] was “Not Active” each time. Also, the IC50 result in test [7] is on record as “Not Active”. In test [5], the Ki entry is reported as “Not Active”.
Consider `NS(=O)(=O)c1cc2c(cc1Cl)NC(C(Cl)Cl)NS2(=O)=O` (stereo unspecified) [TRICHLORMETHIAZIDE], for which the IC50 entry in test [1], in test [2], in test [3], in test [4] (mdck), in test [5] and in test [6] was “Not Active” each time. Moreover, in test [7], the IC50 result is on record as “Not Active”. Besides, the Ki entry in test [5] was “Not Active”.
With `Nc1c2c(nc3ccccc13)CCCC2` [TACRINE], the IC50 result in test [1] is “Not Active”; in test [2], “Not Active”; in test [3], “Not Active”; in test [4] (read-out: IC50), 0.517 µM; in test [5], “Not Active”; in test [6], “Not Active”. Moreover, the IC50 entry in test [7] is on record as “Not Active”. Also, the Ki was 0.513 µM in test [4] (read-out: Ki) and “Not Active” in test [5].
With `NC[C@H]1CC[C@H](C(=O)O)CC1` [TRANEXAMIC ACID], the IC50 result in test [1], in test [2], in test [3], in test [4] (mdck), in test [5] and in test [6] was “Not Active” each time. Besides, in test [7], the IC50 entry is reported as “Not Active”. Also, the Ki result in test [5] is “Not Active”.
Take `CCOC(=O)N1CCC(=C2c3ccc(Cl)cc3CCc3cccnc32)CC1` [LORATADINE]: the IC50 result in test [1], in test [2], in test [3], in test [4] (mdck), in test [5] and in test [6] was “Not Active” in each case. Moreover, the IC50 result in test [7] is “Not Active”. Besides, the inhibition constant Ki result in test [5] was “Not Active”.
Regarding `c1ccc([C@H]2CN3CCSC3=N2)cc1` [LEVAMISOLE], the IC50 entry in test [1], in test [2], in test [3], in test [4] (mdck), in test [5] and in test [6] was “Not Active” throughout. Besides, in test [7], the IC50 result is recorded as “Not Active”. Besides, in test [5], the Ki entry is given as “Not Active”.
On to `CC[C@@H](CO)NC(=O)[C@@H]1C=C2c3cccc4[nH]cc(c34)C[C@H]2N(C)C1` [METHYLERGONOVINE], for which the IC50 result in test [1], in test [2], in test [3], in test [4] (mdck), in test [5] and in test [6] was “Not Active” throughout. In test [7], the IC50 result was “Not Active”. The Ki result in test [5] was “Not Active”.
With SODIUM NITROPRUSSIDE, the IC50 result in test [1], in test [2], in test [3], in test [4] (mdck), in test [5] and in test [6] was “Not Active” throughout. The IC50 result in test [7] is on record as “Not Active”. The Ki entry in test [1], in test [2], in test [3], in test [4] (mdck), in test [5] and in test [6] was “Not Active” each time. The inhibition constant (Ki) entry in test [7] was “Not Active”.
Consider `CO[C@H]1/C=C/O[C@@]2(C)Oc3c(C)c(O)c4c(O)c(c(/C=N/N5CCN(C)CC5)c(O)c4c3C2=O)NC(=O)/C(C)=C\C=C\[C@H](C)[C@H](O)[C@@H](C)[C@@H](O)[C@@H](C)[C@H](OC(C)=O)[C@@H]1C` [RIFAMPIN], for which the IC50 entry in test [1], in test [2], in test [3], in test [4] (mdck), in test [5] and in test [6] was “Not Active” throughout. In addition, the IC50 result in test [7] was “Not Active”. The inhibition constant Ki result in test [5] is listed as “Not Active”.
Take `N#CC(C#N)=Cc1ccc(O)c(O)c1` [TYRPHOSTIN 23]: the IC50 result in test [1], in test [2], in test [3], in test [4] (mdck), in test [5] and in test [6] was “Not Active” each time. The IC50 entry in test [7] is reported as “Not Active”. Also, the Ki result in test [5] is given as “Not Active”.
